Results taken from patent publication US20120035247A1, “RNA Interference Mediated Inhibition of Signal Transducer and Activator of Transcription 6 (STAT6) Gene Expression Using Short Interfering Nucleic Acid (siNA)” (Merck Sharp & Dohme Corp., priority 2009, published 2012).
[invAb] = inverted abasic unit; m = 2'-O-methyl; r = 2'-OH (RNA); f = 2'-fluoro

How the values were obtained:
[1] = tested on: human STAT4 mRNA transcript; assay: STAT4 specificity screen in human A549 cells, STAT4 mRNA by quantitative RT-PCR; type: cell-based; conditions: three experiments, mean ± standard deviation
Description: A549 (human; ATCC cat# CCL-185): Cells were cultured at 37° C. in the presence of 5% CO2 and grown in Ham's F12K medium with 2 mM L-glutamine adjusted to contain 1.5 g/L sodium bicarbonate and supplemented with fetal bovine serum at a final concentration of 10%, 100 μg/mL of streptomycin, and 100 U/mL penicillin.
A series of probes and primers were used to detect the various mRNA transcripts of the genes of 13-Actin (human cell line only), and of STATE and GAPDH in mouse and human cell lines. All Taqman probes and primers for the experiments here-in described were supplied as pre-validated sets by Applied Biosystems, Inc. (see Table 2).
The assays were performed on an ABI 7900 instrument, according to the manufacturer's instructions. A TaqMan Gene Expression Master Mix (provided in the Cells-to-CTT™, Applied Biosystems, Cat #4399002) was used. The PCR reactions were carried out at 50° C. for 2 min, 95° C. for 20 min followed by 40 cycles at 95° C. for 15 secs and 60° C. for 1 min.
The expression level of the gene of interest and % knock-down was calculated using Comparative Ct method:
ΔΔCt=ΔCt(Target siNA)−ΔCt(NTC)
Relative expression level=2^−ΔΔCt
The non-targeting control siNA was, unless otherwise indicated, chosen as the value against which to calculate the % knock-down, because it is the most relevant control.
The siNAs from Table 4 were tested in human A549 cell line at a lower concentration (1 nM versus the original screening concentration of 10 nM) to determine the effect of the STATE siRNAs on the mRNA transcript of human STAT4.

STAT6 mRNA [2] = assay: STAT6 siNA screen and dose response in human A549 cells, STAT6 mRNA by quantitative RT-PCR (Taqman); type: cell-based; conditions: for % KD STAT6 mRNA 10 nM / IC50: Table 4, human A549 cells; for % KD STAT6 mRNA 10 nM / IC50 / % KD STAT6: mean ± S.D.; for % KD STAT6 10 nM: Table 5, A549 cells, three experiments, mean ± standard deviation; for % KD STAT6: human A549 cells, 10 nM siNA, 24 hrs, normalized to GAPDH and non-targeting control, n = 3
Procedure, shortened: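 A549 cells were transfected with siNA–RNAiMax complexes at a final 10 nM siNA and incubated 24 h without a medium change. STAT6 mRNA was measured by TaqMan qRT-PCR on cell lysates. Knock-down was calculated by the comparative Ct (ΔΔCt) method against the non-targeting control siNA, with relative expression taken as 2^−ΔΔCt.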

STAT6 mRNA [3] = assay: STAT6 siNA screen in mouse NIH 3T3 cells, STAT6 mRNA by quantitative RT-PCR (Taqman); type: cell-based; conditions: mouse NIH3T3 cells, 10 nM siNA, 24 hrs, normalized to GAPDH and non-targeting control, n = 2
Procedure, shortened: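 NIH 3T3 cells, 5000/well, transfected after 24 h with siNA (10 nM final) via RNAiMax and harvested 24 h later. STAT6 mRNA quantified by TaqMan RT-qPCR with GAPDH; knock-down by comparative Ct (2^−ΔΔCt) against non-targeting control siNA.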

eosinophilia and AHR = conditions: rat model of allergic disease; cited from earlier work
mouse spleen T cells = conditions: in vitro; cited from earlier work

Row | Compound | % KD STAT4 1 nM [1] [%] | % KD STAT6 mRNA 10 nM (STAT6 mRNA [2]) | IC50 (STAT6 mRNA [2]) [pM] | % KD STAT6 10 nM (STAT6 mRNA [2]) [%] | % KD STAT6 (STAT6 mRNA [2]) [%] | % KD STAT6 (STAT6 mRNA [3]) [%] | AHR (eosinophilia and AHR) | eosinophilia (eosinophilia and AHR) | differentiation of mouse spleen T cells into the Th2 phenotype (mouse spleen T cells)
1 | 30005-DC: STAT6 siNA duplex; sense SEQ ID NO: 74, antisense SEQ ID NO: 75; target CUGCACAGCUUGAUAGAAA, site 755 (sense CUGCACAGCUUGAUAGAAATT; antisense UUUCUAUCAAGCUGUGCAGUU; sense: DNA at AGT, 2'-fluoro at CU, [invAb] at 5' end, 3' end, backbone not given here; antisense: sugars from the 5' end rrrffmffmmmffmfmfmmmm, backbone not given here) [STAT6 siNA duplex; target CUGCACAGCUUGAUAGAAA, site 755] | 13.2 ± 14.4 | 70 ± 8.9% | 23.2 ± 10.3 | 70.0 ± 8.9 | 70 ± 8.9 | −8 ± 0.5 | – | – | –
2 | 29999-DC: STAT6 siNA duplex; sense SEQ ID NO: 62, antisense SEQ ID NO: 63; target GUUCGAUUCCUGUUGGGCU, site 1148 (sense GUUCGAUUCCUGUUGGGCUTT; antisense AGCCCAACAGGAAUCGAACUU; sense: DNA at AGT, 2'-fluoro at CU, [invAb] at 5' end, 3' end, backbone not given here; antisense: sugars from the 5' end rrrffmmfmmmmmffmmmfmm, backbone not given here) [STAT6 siNA duplex; target GUUCGAUUCCUGUUGGGCU, site 1148] | −17.4 ± 20.9 | 72.8 ± 1^ % | 48.7 ± 21.7 | 72.8 ± 1.0 | 72.8 ± 1 | 53.4 ± 3.1 | – | – | –
3 | NC(=O)c1cnc(Nc2ccc(N3CCOCC3)cc2)nc1NCc1c(F)ccc(F)c1F [YM341619] | – | – | – | – | – | – | inhibited | inhibited | inhibited
